What all share (format): physicochemical
Data set [1] can be described thus: Stability studies of CBD prepared via Protocol 3 (crude, pure, 2x recrystallized; 5° C., 25° C./60% RH, 40° C./75% RH).
A short description of data set [2]: HPLC method quantifying low levels of D9-THC in stored cannabidiol samples. The method, then:
An analytical method using HPLC was developed to determine low levels of delta-9-tetrahydrocannabinol in cannabidiol samples. A Waters XBridge C18 3.5 μm, 3.0×150 mm column was employed and operated at a temperature of 30° C., UV wavelength of 225 nm, and injection size of 20 μL. Mobile Phase A was 0.02% (v/v) acetic acid in H2O, while mobile phase B was 0.02% (v/v) acetic acid in acetonitrile (ACN).
An aliquot of 0.5 mL of a D9-THC reference standard (Cerilliant, 1.0 mg/mL MeOH solution) was diluted in a 500-mL volumetric flask using sample diluent (70/30 Acetonitrile/H2O, v/v). The D9-THC concentration was 0.001 mg/mL in the standard stock solution, which corresponded with 200 ppm of D9-THC as compared to the CBD sample solution (nominal CBD concentration was 5.0 mg/mL).
An Aliquot of 5 mL of THC Stock Standard Solution was diluted in a 100-mL volumetric flask using the sample diluent. The D9-THC concentration was 0.00005 mg/mL in the working standard solution, corresponding with 10 ppm of D9-THC as compared to the CBD sample solution.
About 50 mg of cannabidiol sample was weighed into a 10-mL volumetric flask. The volumetric flask was diluted to volume using sample diluent and mixed well.
A minimum of 6 working standard solutions were injected prior to the sample set. Furthermore, a maximum of 6 injections of CBD sample were injected between bracketing working standard solutions.
The amount of THC in each sample was calculated using the following
For reference, each chromatogram in FIG. 6A through FIG. 6F is shown against a 10 ppm THC working standard. For samples 1, 2, and 3, roughly 50.28 mg, 50.77 mg, and 55.60 mg material was used.

Data set [3] can be described thus: Quantitative thermodynamic solubility determination at ambient temperature, evaporated solids analyzed by XRPD. The following applies: for solubility: thermodynamic from solid, ambient temperature. The procedure:
A quantitative thermodynamic solubility determination was performed on crude cannabidiol obtained via Protocol 2 to aid in the selection of solvents for crystallization experiments. The clear solutions obtained from each solubility determination experiment were evaporated and the obtained solids were analyzed by XRPD.
When the material precipitated as a solid, it was classified as Form A. However, in 11 experiments, the material obtained after evaporation was oil-like in appearance and could not be analyzed by XRPD. When no XRPD record was generated, the field was defined as “Not Applicable” (N/A).

[4] abbreviates: after storage at −16° C. for two years.

≈ marks a conversion by molar mass, not a printed value.

The term solubility denotes how much of the substance goes into solution per volume.

Regarding `C=C(C)[C@@H]1CCC(C)=C[C@H]1c1c(O)cc(CCCCC)cc1O` [Pure CBD], in data set [1] (25° C./60% RH, 0 month), the “Related substances by HPLC (low level): Δ9-Tetrahydrocannabinol” value is reported as 26 ppm and the “Water content in % w/w” value is under 0.05%. Also, in data set [1] (25° C./60% RH, 1 month), the Appearance entry is “Off-White Powder”, the “Assay by HPLC” value came out at 99.7%, the “Each unspecified impurity: RRT~1.927” value was “RRT~1.927: 0.06%” and the “Related substances by HPLC (low level): Δ8-Tetrahydrocannabinol” value turned out to be 25 ppm. For the same compound, in data set [1] (25° C./60% RH, 1 month), the “Related substances by HPLC (low level): Δ9-Tetrahydrocannabinol” value amounted to 21 ppm; the “Related substances by HPLC: 4-Monobromo-CBD” value is <0.03% (ND); the “Related substances by HPLC: Olivetol” value is reported as <0.03% (ND); the “Related substances by HPLC: Sum of impurities, ≥0.05%” value (shortened to “Related substances by HPLC … ≥0.05%”) was determined as 0.06%. Also, in data set [1] (25° C./60% RH, 1 month), the “Related substances by HPLC: Δ8-Tetrahydrocannabinol” value is <0.02% (ND) and the “Related substances by HPLC: Δ9-Tetrahydrocannabinol” value was <0.02% (ND). Also, in data set [1] (25° C./60% RH, 2 months), the Appearance entry was “Off-White Powder”, the “Assay by HPLC” value came out at 100.3%, the “Each unspecified impurity: RRT~1.935” value is recorded as “RRT~1.935: 0.08%” and the “Related substances by HPLC (low level): Δ8-Tetrahydrocannabinol” value is 21 ppm. In data set [1] (25° C./60% RH, 2 months), the “Related substances by HPLC (low level): Δ9-Tetrahydrocannabinol” value amounted to 14 ppm; the “Related substances by HPLC: 4-Monobromo-CBD” value is <0.03% (ND); the “Related substances by HPLC: Olivetol” value is <0.03% (ND); the “Related substances by HPLC … ≥0.05%” value is recorded as 0.08%. In data set [1] (25° C./60% RH, 2 months), the “Related substances by HPLC: Δ8-Tetrahydrocannabinol” value was <0.02% (ND) and the “Related substances by HPLC: Δ9-Tetrahydrocannabinol” value is <0.02% (ND). Further, in data set [1] (25° C./60% RH, 3 months), the Appearance entry was “Off-white”, the “Assay by HPLC” value is recorded as 98.5%, the “Each unspecified impurity: RRT~1.982” value was “RRT~1.982: 0.03%” and the “Related substances by HPLC (low level): Δ8-Tetrahydrocannabinol” value turned out to be 36 ppm. Also, in data set [1] (25° C./60% RH, 3 months), the “Related substances by HPLC (low level): Δ9-Tetrahydrocannabinol” value is <4 ppm (2 ppm); the “Related substances by HPLC: 4-Monobromo-CBD” value is <0.03% (ND); the “Related substances by HPLC: Olivetol” value is <0.03% (ND); the “Related substances by HPLC … ≥0.05%” value is on record as under 0.05%. Also, in data set [1] (25° C./60% RH, 3 months), the “Related substances by HPLC: Δ8-Tetrahydrocannabinol” value is reported as <0.02% (ND) and the “Related substances by HPLC: Δ9-Tetrahydrocannabinol” value was <0.02% (ND). In data set [1] (40° C./75% RH, 0 month), the “Related substances by HPLC (low level): Δ9-Tetrahydrocannabinol” value stood at 26 ppm and the “Water content in % w/w” value is on record as under 0.05%. Also, in data set [1] (40° C./75% RH, 1 month), the Appearance result is listed as “Off-White”, the “Assay by HPLC” value was found to be 99.5%, the “Each unspecified impurity: RRT~1.929” value stood at 0.05% and the “Related substances by HPLC (low level): Δ8-Tetrahydrocannabinol” value is recorded as 22 ppm. Moreover, in data set [1] (40° C./75% RH, 1 month), the “Related substances by HPLC (low level): Δ9-Tetrahydrocannabinol” value was determined as 14 ppm; the “Related substances by HPLC: 4-Monobromo-CBD” value is reported as <0.03% (ND); the “Related substances by HPLC: Olivetol” value was <0.03% (ND); the “Related substances by HPLC … ≥0.05%” value worked out at 0.05%. In data set [1] (40° C./75% RH, 1 month), the “Related substances by HPLC: Δ8-Tetrahydrocannabinol” value is on record as <0.02% (ND) and the “Related substances by HPLC: Δ9-Tetrahydrocannabinol” value is recorded as <0.02% (ND). In addition, in data set [1] (40° C./75% RH, 2 months), the Appearance entry is on record as “Off-White”, the “Assay by HPLC” value stood at 100.2%, the “Each unspecified impurity: RRT~1.932” value was 0.07% and the “Related substances by HPLC (low level): Δ8-Tetrahydrocannabinol” value is on record as 20 ppm. For the same compound, in data set [1] (40° C./75% RH, 2 months), the “Related substances by HPLC (low level): Δ9-Tetrahydrocannabinol” value is recorded as 9 ppm; the “Related substances by HPLC: 4-Monobromo-CBD” value was <0.03% (ND); the “Related substances by HPLC: Olivetol” value is on record as <0.03% (ND); the “Related substances by HPLC … ≥0.05%” value is recorded as 0.07%. In addition, in data set [1] (40° C./75% RH, 2 months), the “Related substances by HPLC: Δ8-Tetrahydrocannabinol” value was <0.02% (ND) and the “Related substances by HPLC: Δ9-Tetrahydrocannabinol” value is listed as <0.02% (ND). In data set [1] (40° C./75% RH, 3 months), the Appearance entry is reported as “Off-white”, the “Assay by HPLC” value came out at 98.8%, the “Each unspecified impurity: RRT~1.983” value was determined as 0.03% and the “Related substances by HPLC (low level): Δ8-Tetrahydrocannabinol” value is listed as 30 ppm. In data set [1] (40° C./75% RH, 3 months), the “Related substances by HPLC (low level): Δ9-Tetrahydrocannabinol” value is on record as <4 ppm (ND); the “Related substances by HPLC: 4-Monobromo-CBD” value is reported as <0.03% (ND); the “Related substances by HPLC: Olivetol” value was <0.03% (ND); the “Related substances by HPLC … ≥0.05%” value is recorded as under 0.05%. In data set [1] (40° C./75% RH, 3 months), the “Related substances by HPLC: Δ8-Tetrahydrocannabinol” value is <0.02% (ND) and the “Related substances by HPLC: Δ9-Tetrahydrocannabinol” value is listed as <0.02% (ND). In addition, in data set [1] (40° C./75% RH, 5 months), the Appearance entry is “Off-white”, the “Assay by HPLC” value is given as 99.9%, the “Each unspecified impurity: RRT~1.918” value was found to be 0.04% and the “Related substances by HPLC (low level): Δ8-Tetrahydrocannabinol” value is reported as 36 ppm. In data set [1] (40° C./75% RH, 5 months), the “Related substances by HPLC (low level): Δ9-Tetrahydrocannabinol” value worked out at 6 ppm; the “Related substances by HPLC: 4-Monobromo-CBD” value is given as <0.03% (ND); the “Related substances by HPLC: Olivetol” value is on record as <0.03% (ND); the “Related substances by HPLC … ≥0.05%” value is given as under 0.05%. In data set [1] (40° C./75% RH, 5 months), the “Related substances by HPLC: Δ8-Tetrahydrocannabinol” value was <0.02% (ND) and the “Related substances by HPLC: Δ9-Tetrahydrocannabinol” value was <0.02% (ND).

For `C=C(C)[C@@H]1CCC(C)=C[C@H]1c1c(O)cc(CCCCC)cc1O` [Sample 3, Cannabidiol], the “Result (D9-THC in ppm)” value in data set [2] (after storage for one month at room temperature (25° C.)) stood at 5.1 ppm.

With `C=C(C)[C@@H]1CCC(C)=C[C@H]1c1c(O)cc(CCCCC)cc1O` [Sample 4, Cannabidiol], in data set [2] (setting [4]), the “Result (D9-THC in ppm)” value was determined as 8.3 ppm.

For `C=C(C)[C@@H]1CCC(C)=C[C@H]1c1c(O)cc(CCCCC)cc1O` [Sample 5, Cannabidiol], in data set [2] (setting [4]), the “Result (D9-THC in ppm)” value was determined as 21.7 ppm.

As for `C=C(C)[C@@H]1CCC(C)=C[C@H]1c1c(O)cc(CCCCC)cc1O` [Sample 6, Cannabidiol], the “Result (D9-THC in ppm)” value in data set [2] (setting [4]) was 7.3 ppm.

Turning to `C=C(C)[C@@H]1CCC(C)=C[C@H]1c1c(O)cc(CCCCC)cc1O` [crude cannabidiol, cannabidiol], the solubility in data set [3] (organic solvent or mixture, 1,2-Dimethoxyethane) was over 100 mg/mL; in data set [3] (organic solvent or mixture, 1-Propanol), over 100 mg/mL; in data set [3] (organic solvent or mixture, 1.4-Dioxane), over 100 mg/mL; in data set [3] (organic solvent or mixture, 2-Butanone) it was over 100 mg/mL; in data set [3] (organic solvent or mixture, 2-propanol), over 100 mg/mL; in data set [3] (organic solvent or mixture, Acetone) it was over 100 mg/mL. Besides, the solubility in data set [3] (organic solvent or mixture, Acetonitrile) was over 100 mg/mL; in data set [3] (organic solvent or mixture, Anisole) it was over 100 mg/mL; in data set [3] (organic solvent or mixture, Chloroform), over 100 mg/mL; in data set [3] (organic solvent or mixture, Cumene), over 100 mg/mL; in data set [3] (organic solvent or mixture, Cyclohexane) it was over 100 mg/mL; in data set [3] (organic solvent or mixture, Dichloromethane) it was over 100 mg/mL. Also, the solubility in data set [3] (organic solvent or mixture, Diethyl ether) is over 100 mg/mL; in data set [3] (organic solvent or mixture, Ethanol) it was over 100 mg/mL; in data set [3] (organic solvent or mixture, Ethyl Acetate), over 100 mg/mL; in data set [3] (organic solvent or mixture, Ethyl Formate), over 100 mg/mL; in data set [3] (organic solvent or mixture, Heptane), 64.6 mg/mL (≈ 205 mM); in data set [3] (organic solvent or mixture, Isobutanol), over 100 mg/mL. For the same compound, the solubility in data set [3] (organic solvent or mixture, Isopropyl acetate) is over 100 mg/mL; in data set [3] (organic solvent or mixture, Methanol), over 100 mg/mL; in data set [3] (organic solvent or mixture, Tert-Butyl methyl ether), over 100 mg/mL; in data set [3] (organic solvent or mixture, Tetrahydrofuran), over 100 mg/mL; in data set [3] (organic solvent or mixture, Toluene) it was over 100 mg/mL; in data set [3] (organic solvent or mixture, p-Xylene), over 100 mg/mL. The compound further yielded a solubility in data set [3] (Water) of under 0.13 mg/mL. Also, the XRPD result in data set [3] (solid after evaporation of 1.4-Dioxane solution), in data set [3] (solid after evaporation of 2-Butanone solution), in data set [3] (solid after evaporation of Chloroform solution), in data set [3] (solid after evaporation of Cyclohexane solution), in data set [3] (solid after evaporation of Dichloromethane solution) and in data set [3] (solid after evaporation of Diethyl ether solution) was “Form A” in each case. For the same compound, the XRPD entry in data set [3] (solid after evaporation of Ethyl Acetate solution), in data set [3] (solid after evaporation of Ethyl Formate solution), in data set [3] (solid after evaporation of Heptane solution), in data set [3] (solid after evaporation of Isopropyl acetate solution), in data set [3] (solid after evaporation of Tert-Butyl methyl ether solution) and in data set [3] (solid after evaporation of Tetrahydrofuran solution) was “Form A” each time. Also, the XRPD result in data set [3] (solid after evaporation of Toluene solution) and in data set [3] (solid after evaporation of Water solution) was “Form A” throughout.

These data come from patent publication US12144795B2, “Cannabidiol compositions having modified cannabinoid profiles” (priority 2018, dated 2024).
